Source: patent US20050221381A1, “Method for isolating ligands” (priority 2002, published 2005)
Like-named read-outs stand apart in the source and are kept apart here.

Experiments:
[1] = molecular target: T1, soluble DRB1*0401 molecules (DR4) (Homo sapiens, UniProt P01903+P01911, A100K/A169T/F76Y/I96L/K127E/L162R/M171V/N62H/P40V/Q125Y/R42H/S133A/S149N/S66Y/V115G/V209L/W38E); assay type: binding; design: key to DR4 binding: +++: high binding affinity; ++: moderate binding affinity; +: low binding affinity; −: no binding; key to Binding to DRB1 *0401: −: no binding/T cell response; +/−: weak binding/T cell response; +: intermediate binding/T cell response; ++: strong binding/T cell response
T1 construct: Soluble HLA class I A*0201 and HLA class II DRA1*0101/DRB1*0101/Ii, DRA1*0101/DRB1*0401/Ii and DRA1*0101/DRB1*0404/Ii molecules were expressed in SC-2 cells; made in house; host or cells: SC-2 cells

[2] = system: PBMC from CMV seropositive donors; assay type: cell-based, human; conditions: for Frequency in screen (number of refinding/number of donors' expressing the respective HLA type): literature known class I epitopes
[3] = system: HLA-DRB1*0401-transgenic mice splenocytes; assay type: in vivo, mouse; design: key to DRB1*0401 mice total SC (T cell response) / DRB1*0401 mice CD4+ (T cell response): −: no binding/T cell response; +/−: weak binding/T cell response; +: intermediate binding/T cell response; ++: strong binding/T cell response
[4] = molecular target: T1, soluble DRB1*0401 molecules (DR4); assay type: binding; design: key: −: no binding; +/−: weak binding; +: intermediate binding; ++: strong binding; conditions: individual pp65 15mer, SDS-stability assay
[5] = molecular target: T1, soluble DRB1*0401 molecules (DR4); assay type: binding; design: key: +++: high binding affinity; ++: moderate binding affinity; +: low binding affinity; −: no binding; conditions: individual pp65 15mer, SDS-stability assay
[6] = direct binding of individual peptides, SDS-stability assay, compared with YAR and HA306-318
[7] = IFN-gamma ELISpot, enriched CD4+ fraction of splenocytes of HLA-DR4 transgenic mice vaccinated with the longer peptide, ex vivo re-stimulation
[8] = IFN-gamma ELISpot, total splenocytes of HLA-DR4 transgenic mice vaccinated with the longer peptide, ex vivo re-stimulation

| Sequence | Binding to DRB1 *0401 ([1]; soluble DRB1*0401 molecules) | DRB1*0401 mice CD4+ (T cell response) [3, 7] | DRB1*0401 mice total SC (T cell response) [3, 8] | other results |
| --- | --- | --- | --- | --- |
| AETPGCVAYIGISFLDQ [Peptide 1239] |  |  |  | DR4 binding [1, 6]: − |
| ARNLVPMVATVQGQN [Peptide 493] |  |  |  | Reactivity, induction of IFN-gamma secretion ([2]; donor 10736, single peptides, secondary screen (FIG. 9)): inducers of IFN-gamma secretion |
| ATKMQVIGDQYVKVY [Peptide 213] |  |  |  | Induction of IFN-gamma secretion in T cells / PBMC from CMV seropositive donors [2]: can induce functional, IFN-gamma secreting T cells in humans |
| DVYYTSAFVFPTKDV [Peptide 179] | + | + | + | Binding to DRB1*0401 [4]: + |
| EFFWDANDIYRIFAE [Peptide 512] |  |  |  | Binding to DRB1*0401 [5]: − |
| EYRHTWDRHDEGAAQ [Peptide 380] | − | − | − | Binding to DRB1*0401 [5]: − |
| GDDDVWTSGSDSDEE [Peptide 395] |  |  |  | Recognition by T cells in HLA context other than described [2]: recognized by T cells in a different HLA context than known before |
| GQNLKYQEFFWDAND [Peptide 505] | − | − | + |  |
| GRLKAESTVAPEEDT [Peptide 454] | + | +/− | +/− | Binding to DRB1*0401 [4]: + |
| GVMTRGRLKAESTVA [Peptide 449] | +/− | ++ | + | Binding to DRB1*0401 [4]: +/− |
| GVSTANATVYMIDSVL [Peptide 1237] |  |  |  | DR4 binding [1, 6]: ++ |
| HDEGAAQGDDDVWTS [Peptide 388] |  |  |  | Binding to DRB1*0401 [5]: − |
| HNPAVFTWPPWQAGI [Peptide 477] |  |  |  | Induction of IFN-gamma secretion in T cells / PBMC from CMV seropositive donors [2]: can induce functional, IFN-gamma secreting T cells in humans |
| HTWDRHDEGAAQGDD [Peptide 383] | +/− | − | − | Binding to DRB1*0401 [4]: +/− |
| IDELKTNSSLLTSILTYHVV [Peptide 1235] |  |  |  | DR4 binding [1, 6]: − |
| IHNPAVFTWPPWQAG [Peptide 476] |  |  |  | Induction of IFN-gamma secretion in T cells / PBMC from CMV seropositive donors [2]: can induce functional, IFN-gamma secreting T cells in humans |
| ILVSQYTPDSTPCHR [Peptide 56] | ++ | + | ++ | Binding to DRB1*0401 [4]: ++ |
| KTPRVTGGGANAGAS [Peptide 416] |  |  |  | Recognition by T cells in HLA context other than described [2]: recognized by T cells in a different HLA context than known before |
| KYQEFFWDANDIYRI [Peptide 509] |  |  |  | Binding to DRB1 *0401 [1]: −; DRB1*0401 mice CD4+ (T cell response) ([3]; mouse, in vivo): ++; DRB1*0401 mice total SC (T cell response) ([3]; mouse, in vivo, sc): ++ |
| LEYRHTWDRHDEGAA [Peptide 379] |  |  |  | Binding to DRB1*0401 [5]: − |

| Sequence | Binding to DRB1 *0401 ([1]; soluble DRB1*0401 molecules) | DRB1*0401 mice CD4+ (T cell response) [3, 7] | DRB1*0401 mice total SC (T cell response) [3, 8] | other results |
| --- | --- | --- | --- | --- |
| LILVSQYTPDSTPCH [Peptide 55] | + | + | ++ | Binding to DRB1*0401 [4]: + |
| LKAESTVAPEEDTDE [Peptide 456] |  | − | − |  |
| LLQRGPQYSEHPTFT [Peptide 356] |  | +/− | +/− |  |
| LQRGPQYSEHPTFTS [Peptide 357] |  |  |  | DRB1*0401 mice CD4+ (T cell response) ([3]; mouse, in vivo): +/−; DRB1*0401 mice total SC (T cell response) ([3]; mouse, in vivo, sc): + |
| MQVIGDQYVKVYLES [Peptide 216] |  |  |  | Induction of IFN-gamma secretion in T cells / PBMC from CMV seropositive donors [2]: can induce functional, IFN-gamma secreting T cells in humans |
| NFAGIEAAASAIQGNV [Peptide 1238] |  |  |  | DR4 binding [1, 6]: − |
| NFLLPDAQSIQAAAAG [Peptide 1241] |  |  |  | DR4 binding [1, 6]: ++ |
| NLVPMVATV [reference compound] |  |  |  | Number of donors recognizing the epitope ([2]; HLA A2 donors): 9 out of 10; Frequency in screen (number of refinding/number of donors' expressing the respective HLA type) [2]: 8/9 |
| PAVFTWPPWQAGILA [Peptide 479] |  |  |  | Induction of IFN-gamma secretion in T cells / PBMC from CMV seropositive donors [2]: can induce functional, IFN-gamma secreting T cells in humans |
| PFMRPHERNGFTVLC [Peptide 262] |  |  |  | Recognition by T cells in HLA context other than described [2]: recognized by T cells in a different HLA context than known before |
| PTFTSQYRIQGKLEY [Peptide 367] |  |  |  | Binding to DRB1*0401 [5]: − |
| QGDDDVWTSGSDSDE [Peptide 394] |  |  |  | Recognition by T cells in HLA context other than described [2]: recognized by T cells in a different HLA context than known before |
| QGQNLKYQEFFWDAN [Peptide 504] | − | − | − |  |
| QNLKYQEFFWDANDI [Peptide 506] | − | +/− | ++ | Induction of IFN-gamma secretion in T cells / PBMC from CMV seropositive donors [2]: can induce functional, IFN-gamma secreting T cells in humans |
| QNQWKEPDVYYTSAF [Peptide 172] |  |  |  | Binding to DRB1*0401 [5]: − |
| QRGPQYSEHPTFTSQ [Peptide 358] |  |  |  | DRB1*0401 mice CD4+ (T cell response) ([3]; mouse, in vivo): +/−; DRB1*0401 mice total SC (T cell response) ([3]; mouse, in vivo, sc): ++ |
| QYSEHPTFTSQYRIQ [Peptide 362] |  |  |  | DRB1*0401 mice CD4+ (T cell response) ([3]; mouse, in vivo): ++; DRB1*0401 mice total SC (T cell response) ([3]; mouse, in vivo, sc): + |
| RHTWDRHDEGAAQGD [Peptide 382] | − | − | − | Binding to DRB1*0401 [5]: − |
| RIFAELEGV |  |  |  | Frequency in screen (number of refinding/number of donors' expressing the respective HLA type) [2]: 1/9 |
| RKTPRVTGGGAMAGA [Peptide 415] |  |  |  | Recognition by T cells in HLA context other than described [2]: recognized by T cells in a different HLA context than known before |

| Sequence | Binding to DRB1 *0401 ([1]; soluble DRB1*0401 molecules) | DRB1*0401 mice CD4+ (T cell response) [3, 7] | DRB1*0401 mice total SC (T cell response) [3, 8] | other results |
| --- | --- | --- | --- | --- |
| RLKAESTVAPEEDTD [Peptide 455] | + | +/− | +/− | Binding to DRB1*0401 [5]: − |
| RQQNQWKEPDVYYTS [Peptide 170] |  |  |  | Binding to DRB1*0401 [5]: − |
| SGVMTRGRLKAESTV [Peptide 448] | − | − | +/− | Binding to DRB1*0401 [5]: − |
| SLILVSQYTPDSTPC [Peptide 54] | − | +/− | − | Binding to DRB1*0401 [5]: − |
| STPCHRGDNQLQVQH [Peptide 65] | − | − | − | Binding to DRB1*0401 [5]: − |
| TGSGAGIAQAAAGTV [Peptide 1236] |  |  |  | DR4 binding [1, 6]: + |
| TKMQVIGDQYVKVYL [Peptide 214] |  |  |  | Induction of IFN-gamma secretion in T cells / PBMC from CMV seropositive donors [2]: can induce functional, IFN-gamma secreting T cells in humans |
| TPRVTGGGAMAGAST [Peptide 417] |  |  |  | Recognition by T cells in HLA context other than described [2]: recognized by T cells in a different HLA context than known before |
| TRATKMQVIGDQYVK [Peptide 211] |  |  |  | Induction of IFN-gamma secretion in T cells / PBMC from CMV seropositive donors [2]: can induce functional, IFN-gamma secreting T cells in humans |
| VQGQNLKYQEFFWDA [Peptide 503] |  |  |  | Induction of IFN-gamma secretion in T cells / PBMC from CMV seropositive donors [2]: can induce functional, IFN-gamma secreting T cells in humans |
| VSDLKSSTAVIPGYPV [Peptide 1240] |  |  |  | DR4 binding [1, 6]: + |
| VTTERKTPRVTGGGA [Peptide 411] |  |  |  | Recognition by T cells in HLA context other than described [2]: recognized by T cells in a different HLA context than known before |
| WDRHDEGAAQGDDDV [Peptide 385] | − | − | − | Binding to DRB1*0401 [5]: − |
| YPKYVKQNTLKLAT [HA306-318, reference compound] |  |  |  | DR4 binding [1]: ++ |
| YQEFFWDANDIYRIF [Peptide 510] | − | ++ | ++ | Binding to DRB1*0401 [5]: − |
| YRHTWDRHDEGAAQG [Peptide 381] | − | − | − |  |
| YSEHPTFTSQYRIQG [Peptide 363] |  |  |  | DRB1*0401 mice CD4+ (T cell response) ([3]; mouse, in vivo): ++; DRB1*0401 mice total SC (T cell response) ([3]; mouse, in vivo, sc): + |
| YTSAFVFPTKDVALR [Peptide 182] |  | +/− | +/− |  |
| YYTSAFVFPTKDVAL [Peptide 181] | − | +/− | + |  |
